Assay results reported in the NIST ThermoML archive (doi:10.1016/j.tca.2019.178334).

Assay: excess molar enthalpy (molar enthalpy of mixing); xn = mol fraction of the nth substance listed
Details: 933 K, 101 kPa, Liquid, Calvet calorimetry

[Cl-].[Li+] [lithium chloride] + [Cl-].[K+]
Details | excess molar enthalpy [kcal/mol]
x2 = 0 | 0
x2 = 0.026 | -0.117
x2 = 0.061 | -0.239
x2 = 0.073 | -0.308
x2 = 0.105 | -0.372
x2 = 0.128 | -0.488
x2 = 0.162 | -0.542
x2 = 0.188 | -0.638
x2 = 0.214 | -0.705
x2 = 0.24 | -0.781
x2 = 0.275 | -0.861
x2 = 0.298 | -0.884
x2 = 0.33 | -0.965
x2 = 0.371 | -1.02
x2 = 0.418 | -1.06
x2 = 0.427 | -1.04
